# Measurements taken from the supplement of paper PMC4862054.
# Where “and” joins values, the source holds several entries; their conditions need not be identical. Equal entries are not always repeated.
# Columns and labels:
# CAL-85-1 [1] = conditions: 72 h
# Summary of the method: (§1)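 A 20 µl suspension of breast cancer cells was placed in 384-well plates that already contained compound at 5 concentrations in 10-fold steps across a compound-specific 10,000-fold range, and the plates were left for 72 h. CellTox Green fluorescence at 485/520 nm gave cell death, and CellTiter-Glo luminescence, read after 10 min at room temperature, gave viability. Each plate was normalised to 0.1 % DMSO and a positive kill control. EC50 was fitted from the curves and censored at the top concentration.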
# CAL-148 = conditions: 72 h
# Summary of the method: as §1
# MCF-10A = conditions: 72 h
# Summary of the method: as §1
# HCC1937 = conditions: 72 h
# Summary of the method: as §1
# HDQ-P1 [2] = conditions: 72 h
# Summary of the method: (§2)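 Rows with a drug sensitivity score of zero were dropped, and EC50 was taken from the fitted percent-inhibition dose-response curve, censored at the highest concentration. Data were normalised on each plate to vehicle and a positive kill control and checked by Z'-factor. The assay seeded breast cancer cell lines in 20 µl onto 384-well plates pre-loaded with compound in 5 µl medium for 72 h, then added 2.5 µl CellTiter-Blue for 2 h at 37 °C and read fluorescence at 560/590 nm.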
# MDA-MB-453 [3] = conditions: 72 h
# Summary of the method: as §2
# CAL-85-1 [4] = assay: normalised viability (% of control), CellTiter-Blue; higher = more viable cells (about 100 = DMSO control); conditions: incubation time: 72 h
# Summary of the method: (§3)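 Breast cancer cell lines were treated for 72 h in 384-well format and measured by CellTiter-Blue fluorescence at 560/590 nm. Results were normalised per plate to vehicle (100) and a positive kill control (0). The entry is normalised viability at a single listed concentration of the series.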
# HCC1599 [5] = assay: as above; conditions: incubation time: 72 h
# Summary of the method: as §3
# HDQ-P1 [6] = assay: as above; conditions: incubation time: 72 h
# Summary of the method: as §3
# CAL-51 [7] = assay: as above; conditions: incubation time: 72 h
# Summary of the method: as §3
# HCC1143 [8] = assay: as above; conditions: incubation time: 72 h
# Summary of the method: as §3
# MDA-MB-231 [9] = assay: as above; conditions: incubation time: 72 h
# Summary of the method: as §3
# BT-549 [10] = assay: as above; conditions: incubation time: 72 h
# Summary of the method: as §3
# MDA-MB-436 = conditions: 72 h
# Summary of the method: as §1
# MFM-223 = conditions: 72 h
# Summary of the method: as §1
# HCC1599 [11] = conditions: 72 h
# Summary of the method: as §1
# HDQ-P1 [12] = conditions: 72 h; remark: listed apart in the source
# Summary of the method: as §1
# MDA-MB-453 [13] = conditions: 72 h; remark: listed apart in the source
# Summary of the method: as §1
# CAL-51 [14] = conditions: 72 h
# Summary of the method: as §1
# SK-BR-3 = conditions: 72 h
# Summary of the method: as §1
# MDA-MB-231 [15] = conditions: 72 h
# Summary of the method: as §1
# BT-474 = conditions: 72 h
# Summary of the method: as §1
# BT-549 [16] = conditions: 72 h
# Summary of the method: as §1
# CAL-120 = conditions: 72 h
# Summary of the method: as §1
# HCC1143 [17] = conditions: 72 h
# Summary of the method: as §1
# CAL-51 [18] = conditions: 72 h; remark: listed apart in the source
# Summary of the method: as §2
# DU-4475 [19] = conditions: 72 h
# Summary of the method: as §1
# Hs578T = conditions: 72 h
# Summary of the method: as §1
# DU-4475 [20] = conditions: 72 h; remark: listed apart in the source
# Summary of the method: as §2
# CAL-85-1 [21] = conditions: 72 h; remark: listed apart in the source
# Summary of the method: as §2
Compound,"EC50, CellTiter-Glo (HCC1937) [µM]","EC50, CellTiter-Blue viability (MDA-MB-453 [3]) [µM]","EC50, CellTiter-Glo (MDA-MB-436) [µM]","EC50, CellTiter-Glo (MDA-MB-453 [13]) [µM]","EC50, CellTiter-Glo (MDA-MB-231 [15]) [µM]","EC50, CellTiter-Glo (BT-474) [µM]","EC50, CellTiter-Glo (BT-549 [16]) [µM]","EC50, CellTiter-Glo (MCF-10A) [µM]",normalised viability (CAL-85-1 [4]; 10 nM),normalised viability (HCC1599 [5]; 100 nM),normalised viability (HDQ-P1 [6]; 10 nM),normalised viability (CAL-51 [7]; 10 nM) [%],normalised viability (HCC1143 [8]; 100 nM),normalised viability (MDA-MB-231 [9]; 100 nM),normalised viability (BT-549 [10]; 100 nM) [%],"EC50, CellTiter-Glo (MFM-223) [µM]","EC50, CellTiter-Glo (HDQ-P1 [12]) [µM]","EC50, CellTiter-Glo (CAL-51 [14]) [µM]",further results
COc1cc2ncnc(Nc3ccc(F)c(Cl)c3)c2cc1OCCCN1CCOCC1 [Gefitinib],> 10,5.03,,,,,,0.0842,94.2% and 95.5%,102% and 113%,103% and 100%,107,63% and 86.8%,93.9% and 97%,108,,,,"EC50, CellTiter-Glo (CAL-85-1 [1]): 0.714 µM; EC50, CellTiter-Glo (CAL-148): 0.788 µM; EC50, CellTiter-Blue viability (HDQ-P1 [2]): 3.33 µM"
NC(=O)c1ccc(I)c([N+](=O)[O-])c1 [Iniparib],,,0.54,,,,,,87.6%,103%,108%,93,86.8%,98.8%,106,,,,
Oc1ccc2c(c1)CC[C@H](c1ccccc1)[C@@H]2c1ccc(OCCN2CCCC2)cc1 [Lasofoxifene],,,,,,,,,,,,,,,,,,,normalised viability (CAL-85-1 [4]; 1 nM): 94.4%; normalised viability (HCC1599 [5]; 10 nM): 104%; normalised viability (HDQ-P1 [6]; 1 nM): 107%; normalised viability (CAL-51 [7]; 1 nM): 95.1%; normalised viability (HCC1143 [8]; 10 nM): 90.7%; normalised viability (MDA-MB-231 [9]; 10 nM): 90.1%; normalised viability (BT-549 [10]; 10 nM): 113%
COCC1(CO)C(=O)C2CCN1CC2 (stereo not given) [Prima-1 Met],,,,,,,2.9,,91.4%,122%,91.2%,93.9,74.8%,91.3%,79.3,,,,
CNC(=O)c1ccc(N2C(=S)N(c3ccc(C#N)c(C(F)(F)F)c3)C(=O)C23CCC3)cc1F [RD162],,,,,,> 10,,,,,,,,,,,,,
S=P(N1CC1)(N1CC1)N1CC1 [Thio-TEPA],,,,,,,8.21,,,,,,,,,,,,normalised viability (CAL-85-1 [4]; 100 nM): 102%; normalised viability (HCC1599 [5]; 1000 nM): 87.4%; normalised viability (HDQ-P1 [6]; 100 nM): 120%; normalised viability (CAL-51 [7]; 100 nM): 93.7%; normalised viability (HCC1143 [8]; 1000 nM): 88.8%; normalised viability (MDA-MB-231 [9]; 1000 nM): 98.2%; normalised viability (BT-549 [10]; 1000 nM): 105%
COc1cc2c(NC3CCN(C(C)C)CC3)nc(N3CCC(F)(F)CC3)nc2cc1OCCCN1CCCC1 [UNC0642],> 10,,4.1,3.15,4.72,7.62,,6.61,,,,,,,,5.79,9.83,,"EC50, CellTiter-Glo (CAL-85-1 [1]): 2.99 µM; EC50, CellTiter-Glo (CAL-148): 5.46 µM; EC50, CellTiter-Glo (SK-BR-3): 6.17 µM"
COc1cc2/c(=N/c3ccc(Br)cc3F)nc[nH]c2cc1OCC1CCN(C)CC1 [Vandetanib],,4.64,> 1,,,0.11,,0.15,104%,96.3%,76.7%,99.3,111%,94%,89,0.37,,> 1,"EC50, CellTiter-Glo (CAL-120): > 1 µM; EC50, CellTiter-Blue viability (CAL-85-1 [21]): 2.59 µM; EC50, CellTiter-Blue viability (HDQ-P1 [2]): 0.191 µM; EC50, CellTiter-Blue viability (CAL-51 [18]): 2.9 µM"

# Second part, led by results:
"EC50, CellTiter-Glo (HCC1937) [µM]","EC50, CellTiter-Blue viability (MDA-MB-453 [3]) [µM]","EC50, CellTiter-Glo (MDA-MB-436) [µM]","EC50, CellTiter-Glo (MDA-MB-453 [13]) [µM]","EC50, CellTiter-Glo (MDA-MB-231 [15]) [µM]","EC50, CellTiter-Glo (BT-474) [µM]","EC50, CellTiter-Glo (BT-549 [16]) [µM]",Compound,"EC50, CellTiter-Glo (MCF-10A) [µM]",normalised viability (CAL-85-1 [4]; 10 nM),normalised viability (HCC1599 [5]; 100 nM),normalised viability (HDQ-P1 [6]; 10 nM),normalised viability (CAL-51 [7]; 10 nM) [%],normalised viability (HCC1143 [8]; 100 nM),normalised viability (MDA-MB-231 [9]; 100 nM),normalised viability (BT-549 [10]; 100 nM) [%],"EC50, CellTiter-Glo (MFM-223) [µM]","EC50, CellTiter-Glo (HDQ-P1 [12]) [µM]","EC50, CellTiter-Glo (CAL-51 [14]) [µM]",further results
> 10,4.58,,1.62,> 10,7.58,1.88,Cc1ccc(NC(=O)c2ccc(CN3CCN(C)CC3)cc2)cc1Nc1nc(-c2cccnc2)cs1 [Masitinib],,98.1%,109%,116%,100,83%,88.7%,88.3,> 10,4.91,5.46,"EC50, CellTiter-Glo (HCC1599 [11]): 9.36 µM; EC50, CellTiter-Glo (SK-BR-3): 7.39 µM"
4.83,,5.34,3.11,2.58,3.55,1.91,COC(=O)c1ccc2c(c1)NC(=O)/C2=C(\Nc1ccc(N(C)C(=O)CN2CCN(C)CC2)cc1)c1ccccc1 [Nintedanib],0.584,,,,,,,,0.408,1.08,1.88,"EC50, CellTiter-Glo (CAL-120): 2.38 µM; EC50, CellTiter-Glo (HCC1143 [17]): 4.78 µM"
,2.64,,,,,3.07,O=C(Nc1cccnc1)N1CCC(Cc2cccc(Oc3ccc(C(F)(F)F)cn3)c2)CC1 [PF-3845],,92.2%,99.6%,116%,101,89.9%,128%,111,,,4.2,"EC50, CellTiter-Glo (CAL-85-1 [1]): > 10 µM; EC50, CellTiter-Glo (HCC1599 [11]): 9.42 µM; EC50, CellTiter-Glo (CAL-120): > 10 µM; EC50, CellTiter-Blue viability (CAL-51 [18]): 5.96 µM"
> 10,2.74,6.38,2.89,4.56,3.5,9.05,CNC(=O)c1cc(Oc2ccc(NC(=O)Nc3ccc(Cl)c(C(F)(F)F)c3)c(F)c2)ccn1 [Regorafenib],1.88,97.1%,135%,89.6%,101,74.6%,75.3%,112,1.15,5.11,0.216,"EC50, CellTiter-Glo (DU-4475 [19]): 2.97 µM; EC50, CellTiter-Glo (HCC1599 [11]): 8.02 µM; EC50, CellTiter-Glo (CAL-148): 4.59 µM; EC50, CellTiter-Glo (CAL-120): 9.95 µM; EC50, CellTiter-Glo (SK-BR-3): > 10 µM; EC50, CellTiter-Glo (Hs578T): 2.29 µM; EC50, CellTiter-Blue viability (DU-4475 [20]): 3 µM; EC50, CellTiter-Blue viability (CAL-51 [18]): 2.74 µM"
> 10,2.98,8.14,8.86,6.23,4.65,1.73,c1ccc2c(CCNc3ccc(Nc4ccncc4)cc3)c[nH]c2c1 [Serdemetan],,102%,136%,106%,104,76%,85.8%,113,> 10,1.23,0.315,"EC50, CellTiter-Glo (CAL-85-1 [1]): 8.46 µM; EC50, CellTiter-Glo (DU-4475 [19]): 2.37 µM; EC50, CellTiter-Glo (HCC1599 [11]): 5.24 µM; EC50, CellTiter-Glo (CAL-148): 2.49 µM; EC50, CellTiter-Glo (SK-BR-3): 2.78 µM; EC50, CellTiter-Glo (Hs578T): 9.71 µM; EC50, CellTiter-Blue viability (DU-4475 [20]): 4.5 µM; EC50, CellTiter-Blue viability (CAL-51 [18]): 4.94 µM"
9.75,7.24,,,,3.62,,CN(C)CCOc1ccc(/C(=C(/CCCl)c2ccccc2)c2ccccc2)cc1 [Toremifene],1.71,100%,114%,129%,107,109%,94.2%,109,7.34,,,
